ChEMBL document CHEMBL5678810

Columns and labels:
[1] = biological target: Ribosomal protein S6 kinase beta-1 (Homo sapiens) (UniProt P23443); assay: Inhibition of T7 bacteriophage fused human S6K1 at 10 uM by KINOMEscan analysis relative to control
[2] = biological target: Dual specificity testis-specific protein kinase 1 (Homo sapiens) (UniProt Q15569); assay: Inhibition of T7 bacteriophage fused human TESK1 at 10 uM by KINOMEscan analysis relative to control
[3] = biological target: Tyrosine-protein kinase receptor Tie-1 (Homo sapiens) (UniProt P35590); assay: Inhibition of T7 bacteriophage fused human TIE1 at 10 uM by KINOMEscan analysis relative to control
Tyrosine-protein kinase receptor Tie-1 (Homo sapiens), sequence (P35590 whole entry, the tested form may be a part): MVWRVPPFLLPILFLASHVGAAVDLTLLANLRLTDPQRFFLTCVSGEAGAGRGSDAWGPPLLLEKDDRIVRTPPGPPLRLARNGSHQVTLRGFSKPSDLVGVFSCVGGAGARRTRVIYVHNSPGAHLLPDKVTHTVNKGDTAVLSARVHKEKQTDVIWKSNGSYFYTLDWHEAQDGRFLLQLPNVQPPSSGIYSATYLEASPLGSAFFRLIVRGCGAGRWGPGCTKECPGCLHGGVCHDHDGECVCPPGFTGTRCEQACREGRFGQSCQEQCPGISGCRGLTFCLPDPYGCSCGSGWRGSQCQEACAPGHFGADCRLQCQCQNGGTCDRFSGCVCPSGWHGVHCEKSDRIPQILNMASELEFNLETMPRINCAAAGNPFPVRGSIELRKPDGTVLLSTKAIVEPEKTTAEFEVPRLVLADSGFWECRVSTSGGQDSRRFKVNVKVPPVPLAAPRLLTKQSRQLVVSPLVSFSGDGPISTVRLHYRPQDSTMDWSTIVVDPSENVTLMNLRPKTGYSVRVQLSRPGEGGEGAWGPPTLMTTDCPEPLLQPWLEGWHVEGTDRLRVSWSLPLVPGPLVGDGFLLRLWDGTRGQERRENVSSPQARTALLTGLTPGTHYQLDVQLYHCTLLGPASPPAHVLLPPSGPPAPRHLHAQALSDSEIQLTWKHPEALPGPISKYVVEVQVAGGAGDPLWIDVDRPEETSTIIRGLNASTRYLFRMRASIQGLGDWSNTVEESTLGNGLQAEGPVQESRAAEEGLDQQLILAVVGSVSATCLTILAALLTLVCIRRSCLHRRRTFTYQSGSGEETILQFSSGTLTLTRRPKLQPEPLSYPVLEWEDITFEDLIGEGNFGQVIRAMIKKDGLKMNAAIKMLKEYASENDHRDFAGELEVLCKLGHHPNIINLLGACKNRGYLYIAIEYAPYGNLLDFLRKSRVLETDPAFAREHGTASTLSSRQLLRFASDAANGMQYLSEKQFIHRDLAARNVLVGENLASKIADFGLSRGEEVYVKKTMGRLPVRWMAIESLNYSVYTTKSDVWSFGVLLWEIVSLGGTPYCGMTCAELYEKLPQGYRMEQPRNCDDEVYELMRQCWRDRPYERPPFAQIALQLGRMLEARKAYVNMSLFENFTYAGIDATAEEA

[4] = biological target: Activated CDC42 kinase 1 (Homo sapiens) (UniProt Q07912); assay: Inhibition of T7 bacteriophage fused human TNK2 at 10 uM by KINOMEscan analysis relative to control
Activated CDC42 kinase 1 (Homo sapiens), sequence (Q07912 whole entry, looked up, the tested form may be a part): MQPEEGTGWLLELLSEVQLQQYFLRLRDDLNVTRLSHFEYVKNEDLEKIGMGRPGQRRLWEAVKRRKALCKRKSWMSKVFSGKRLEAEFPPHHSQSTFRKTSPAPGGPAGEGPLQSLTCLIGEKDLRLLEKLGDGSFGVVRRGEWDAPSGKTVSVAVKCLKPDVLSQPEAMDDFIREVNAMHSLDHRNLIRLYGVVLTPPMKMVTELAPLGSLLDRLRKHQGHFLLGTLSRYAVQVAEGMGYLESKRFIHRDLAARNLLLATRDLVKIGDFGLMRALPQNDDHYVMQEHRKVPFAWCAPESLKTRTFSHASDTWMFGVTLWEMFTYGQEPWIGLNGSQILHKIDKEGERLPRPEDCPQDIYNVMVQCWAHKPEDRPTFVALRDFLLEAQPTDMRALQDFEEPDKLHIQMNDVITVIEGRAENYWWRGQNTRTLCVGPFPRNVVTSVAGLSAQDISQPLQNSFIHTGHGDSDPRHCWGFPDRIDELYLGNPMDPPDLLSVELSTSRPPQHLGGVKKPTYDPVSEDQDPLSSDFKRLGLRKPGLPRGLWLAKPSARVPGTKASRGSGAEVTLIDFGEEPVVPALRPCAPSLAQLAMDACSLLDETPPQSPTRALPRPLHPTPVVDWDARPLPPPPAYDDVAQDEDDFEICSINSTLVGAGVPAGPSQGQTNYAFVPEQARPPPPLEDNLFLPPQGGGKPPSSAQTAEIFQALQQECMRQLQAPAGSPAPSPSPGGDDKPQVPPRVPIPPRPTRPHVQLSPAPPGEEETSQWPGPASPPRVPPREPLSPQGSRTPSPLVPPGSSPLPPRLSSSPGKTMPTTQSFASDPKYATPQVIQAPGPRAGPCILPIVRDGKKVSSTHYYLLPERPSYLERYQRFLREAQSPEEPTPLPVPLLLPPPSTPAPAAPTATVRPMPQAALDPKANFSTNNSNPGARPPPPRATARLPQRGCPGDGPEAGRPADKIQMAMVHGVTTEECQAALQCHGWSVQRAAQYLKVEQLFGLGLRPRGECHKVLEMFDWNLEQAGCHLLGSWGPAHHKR

[5] = biological target: T1, Serine/threonine-protein kinase ULK1 (Homo sapiens) (UniProt O75385); assay: Inhibition of T7 bacteriophage fused human ULK1 at 10 uM by KINOMEscan analysis relative to control
T1 sequence (whole entry): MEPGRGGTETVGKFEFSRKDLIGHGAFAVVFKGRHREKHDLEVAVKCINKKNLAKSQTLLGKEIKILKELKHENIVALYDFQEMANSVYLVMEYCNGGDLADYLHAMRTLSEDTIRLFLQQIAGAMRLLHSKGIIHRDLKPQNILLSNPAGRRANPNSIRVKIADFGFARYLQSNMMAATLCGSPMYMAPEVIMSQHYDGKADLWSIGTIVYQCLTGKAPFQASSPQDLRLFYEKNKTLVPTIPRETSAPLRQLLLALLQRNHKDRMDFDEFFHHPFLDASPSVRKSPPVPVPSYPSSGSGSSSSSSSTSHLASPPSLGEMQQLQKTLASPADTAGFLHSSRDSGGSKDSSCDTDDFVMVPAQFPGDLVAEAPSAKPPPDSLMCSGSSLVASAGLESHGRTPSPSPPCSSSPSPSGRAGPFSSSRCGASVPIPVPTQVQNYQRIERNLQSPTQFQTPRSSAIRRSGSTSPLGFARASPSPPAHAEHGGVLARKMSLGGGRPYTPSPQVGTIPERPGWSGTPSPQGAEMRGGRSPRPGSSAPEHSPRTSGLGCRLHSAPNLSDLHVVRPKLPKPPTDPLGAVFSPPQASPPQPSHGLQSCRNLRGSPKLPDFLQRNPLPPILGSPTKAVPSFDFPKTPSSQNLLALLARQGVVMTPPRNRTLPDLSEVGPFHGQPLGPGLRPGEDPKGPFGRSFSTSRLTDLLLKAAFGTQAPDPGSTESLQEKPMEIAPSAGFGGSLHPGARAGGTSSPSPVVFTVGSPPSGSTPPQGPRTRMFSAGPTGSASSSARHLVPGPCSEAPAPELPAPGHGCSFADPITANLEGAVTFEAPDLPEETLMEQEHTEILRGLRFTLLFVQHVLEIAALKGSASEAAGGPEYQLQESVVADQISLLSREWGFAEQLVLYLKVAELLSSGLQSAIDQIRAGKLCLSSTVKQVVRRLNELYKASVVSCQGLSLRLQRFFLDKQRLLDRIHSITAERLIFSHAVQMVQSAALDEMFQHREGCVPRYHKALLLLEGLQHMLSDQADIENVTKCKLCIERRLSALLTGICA

[6] = biological target: Wee1-like protein kinase 2 (Homo sapiens) (UniProt P0C1S8); assay: Inhibition of T7 bacteriophage fused human WEE2 at 10 uM by KINOMEscan analysis relative to control
Wee1-like protein kinase 2 (Homo sapiens), sequence (P0C1S8 whole entry, looked up, the tested form may be a part): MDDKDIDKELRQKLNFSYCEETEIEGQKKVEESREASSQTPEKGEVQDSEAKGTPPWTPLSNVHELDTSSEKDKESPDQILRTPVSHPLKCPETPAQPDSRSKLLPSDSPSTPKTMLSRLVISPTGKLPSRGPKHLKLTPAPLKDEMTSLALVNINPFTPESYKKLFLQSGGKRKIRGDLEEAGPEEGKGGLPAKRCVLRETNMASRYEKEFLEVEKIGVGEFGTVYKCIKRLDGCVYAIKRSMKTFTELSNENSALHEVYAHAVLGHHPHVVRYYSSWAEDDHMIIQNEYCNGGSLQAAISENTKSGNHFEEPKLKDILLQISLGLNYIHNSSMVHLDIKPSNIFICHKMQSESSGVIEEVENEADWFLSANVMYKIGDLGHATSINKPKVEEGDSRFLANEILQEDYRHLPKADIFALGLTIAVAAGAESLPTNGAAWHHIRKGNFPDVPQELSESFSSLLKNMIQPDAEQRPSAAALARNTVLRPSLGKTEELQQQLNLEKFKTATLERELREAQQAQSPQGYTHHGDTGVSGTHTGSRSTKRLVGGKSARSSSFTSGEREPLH

[7] = biological target: T2, Mitogen-activated protein kinase kinase kinase 19 (Homo sapiens) (UniProt Q56UN5); assay: Inhibition of T7 bacteriophage fused human YSK4 at 10 uM by KINOMEscan analysis relative to control
T2 sequence (whole entry): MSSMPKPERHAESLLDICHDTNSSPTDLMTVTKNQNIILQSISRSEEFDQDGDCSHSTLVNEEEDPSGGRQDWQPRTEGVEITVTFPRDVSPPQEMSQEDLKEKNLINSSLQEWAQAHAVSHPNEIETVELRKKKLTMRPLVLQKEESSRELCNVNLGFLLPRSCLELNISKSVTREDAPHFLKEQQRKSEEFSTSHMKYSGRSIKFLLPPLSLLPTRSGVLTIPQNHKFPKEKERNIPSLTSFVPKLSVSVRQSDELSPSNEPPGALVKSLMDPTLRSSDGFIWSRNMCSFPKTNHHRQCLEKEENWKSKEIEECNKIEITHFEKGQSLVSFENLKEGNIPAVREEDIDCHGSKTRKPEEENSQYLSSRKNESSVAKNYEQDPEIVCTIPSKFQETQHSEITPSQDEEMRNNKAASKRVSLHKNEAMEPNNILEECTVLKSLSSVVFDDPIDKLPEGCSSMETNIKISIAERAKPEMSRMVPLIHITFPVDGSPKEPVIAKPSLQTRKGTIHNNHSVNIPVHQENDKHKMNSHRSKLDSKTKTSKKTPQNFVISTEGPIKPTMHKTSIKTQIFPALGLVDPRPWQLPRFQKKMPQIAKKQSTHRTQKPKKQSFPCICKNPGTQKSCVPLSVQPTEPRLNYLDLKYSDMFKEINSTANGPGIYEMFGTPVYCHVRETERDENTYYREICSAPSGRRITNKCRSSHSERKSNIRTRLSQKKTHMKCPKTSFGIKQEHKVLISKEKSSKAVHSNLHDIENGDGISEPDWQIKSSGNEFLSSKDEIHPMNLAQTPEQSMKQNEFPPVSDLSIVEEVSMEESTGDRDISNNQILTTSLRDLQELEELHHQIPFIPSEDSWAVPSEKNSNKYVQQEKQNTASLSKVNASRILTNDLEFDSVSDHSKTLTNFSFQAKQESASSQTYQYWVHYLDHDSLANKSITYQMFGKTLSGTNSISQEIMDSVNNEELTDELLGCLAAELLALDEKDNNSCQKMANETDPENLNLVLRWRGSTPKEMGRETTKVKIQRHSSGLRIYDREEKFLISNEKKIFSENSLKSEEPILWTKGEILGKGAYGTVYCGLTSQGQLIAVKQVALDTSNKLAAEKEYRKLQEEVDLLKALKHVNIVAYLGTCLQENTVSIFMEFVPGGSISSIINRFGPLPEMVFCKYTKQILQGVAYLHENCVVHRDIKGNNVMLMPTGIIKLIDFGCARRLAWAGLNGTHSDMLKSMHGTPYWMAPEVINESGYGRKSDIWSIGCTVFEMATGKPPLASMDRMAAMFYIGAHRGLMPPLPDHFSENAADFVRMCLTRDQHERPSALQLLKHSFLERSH

[8] = biological target: Mitogen-activated protein kinase kinase kinase 20 (Homo sapiens) (UniProt Q9NYL2); assay: Inhibition of T7 bacteriophage fused human ZAK at 10 uM by KINOMEscan analysis relative to control
Mitogen-activated protein kinase kinase kinase 20 (Homo sapiens), sequence (Q9NYL2 2-800 limits assumed): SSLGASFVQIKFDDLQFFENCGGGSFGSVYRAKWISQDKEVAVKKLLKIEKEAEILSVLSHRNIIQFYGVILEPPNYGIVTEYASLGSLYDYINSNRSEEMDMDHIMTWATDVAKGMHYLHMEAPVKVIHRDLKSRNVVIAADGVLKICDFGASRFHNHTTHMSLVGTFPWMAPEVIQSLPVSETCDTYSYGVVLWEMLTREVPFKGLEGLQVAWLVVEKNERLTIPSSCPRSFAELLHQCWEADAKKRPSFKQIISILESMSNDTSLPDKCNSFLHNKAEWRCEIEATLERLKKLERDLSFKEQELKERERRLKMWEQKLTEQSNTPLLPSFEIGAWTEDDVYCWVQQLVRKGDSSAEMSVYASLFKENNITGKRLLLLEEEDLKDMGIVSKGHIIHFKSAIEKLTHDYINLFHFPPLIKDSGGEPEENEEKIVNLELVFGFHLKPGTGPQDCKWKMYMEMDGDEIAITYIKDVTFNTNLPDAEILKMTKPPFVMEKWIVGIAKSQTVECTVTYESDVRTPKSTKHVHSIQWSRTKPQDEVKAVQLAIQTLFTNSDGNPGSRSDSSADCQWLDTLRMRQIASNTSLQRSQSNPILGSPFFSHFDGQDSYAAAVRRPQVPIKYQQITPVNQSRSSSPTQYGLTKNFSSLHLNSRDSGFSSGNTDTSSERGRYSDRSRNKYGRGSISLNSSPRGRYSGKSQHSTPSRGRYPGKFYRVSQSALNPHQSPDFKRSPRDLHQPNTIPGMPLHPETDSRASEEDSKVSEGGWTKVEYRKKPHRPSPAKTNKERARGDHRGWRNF

Dual specificity testis-specific protein kinase 1 (Homo sapiens), sequence (Q15569 whole entry, looked up, the tested form may be a part): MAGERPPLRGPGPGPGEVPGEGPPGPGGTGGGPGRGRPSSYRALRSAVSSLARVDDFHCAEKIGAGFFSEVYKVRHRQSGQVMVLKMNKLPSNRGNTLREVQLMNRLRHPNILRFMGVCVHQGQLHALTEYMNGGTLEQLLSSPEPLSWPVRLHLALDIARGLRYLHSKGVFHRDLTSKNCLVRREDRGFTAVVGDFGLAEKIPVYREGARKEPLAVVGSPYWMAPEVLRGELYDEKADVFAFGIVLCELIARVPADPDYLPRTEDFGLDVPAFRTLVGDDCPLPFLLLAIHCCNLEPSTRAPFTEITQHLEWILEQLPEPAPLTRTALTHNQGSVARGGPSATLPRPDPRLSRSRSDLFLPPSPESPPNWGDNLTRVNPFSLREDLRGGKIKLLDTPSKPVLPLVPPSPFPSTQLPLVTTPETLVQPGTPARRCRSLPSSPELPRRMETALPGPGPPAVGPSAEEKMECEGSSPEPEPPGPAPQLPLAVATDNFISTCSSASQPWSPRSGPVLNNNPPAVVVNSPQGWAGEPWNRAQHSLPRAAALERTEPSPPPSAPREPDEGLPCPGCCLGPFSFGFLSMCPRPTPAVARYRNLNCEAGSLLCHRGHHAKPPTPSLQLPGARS
Ribosomal protein S6 kinase beta-1 (Homo sapiens), sequence (P23443 whole entry, looked up, the tested form may be a part): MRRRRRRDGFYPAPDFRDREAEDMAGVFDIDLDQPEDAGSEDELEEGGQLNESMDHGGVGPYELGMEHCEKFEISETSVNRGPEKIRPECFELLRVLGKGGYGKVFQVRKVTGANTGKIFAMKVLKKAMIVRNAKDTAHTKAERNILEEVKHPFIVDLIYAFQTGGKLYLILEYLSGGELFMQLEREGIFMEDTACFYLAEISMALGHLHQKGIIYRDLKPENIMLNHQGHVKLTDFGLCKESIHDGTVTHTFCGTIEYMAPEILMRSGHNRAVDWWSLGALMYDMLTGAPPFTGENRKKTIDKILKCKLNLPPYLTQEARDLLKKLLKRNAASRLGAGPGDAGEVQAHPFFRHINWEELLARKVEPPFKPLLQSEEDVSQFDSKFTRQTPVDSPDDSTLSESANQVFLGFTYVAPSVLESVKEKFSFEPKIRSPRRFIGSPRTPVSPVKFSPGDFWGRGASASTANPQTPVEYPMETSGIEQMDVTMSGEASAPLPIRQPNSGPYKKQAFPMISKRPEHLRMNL

SMILES	inhibition [1] [%]	inhibition [2] [%]	inhibition [3] [%]	inhibition [4] [%]	inhibition [5] [%]	inhibition [6] [%]	inhibition [7] [%]	inhibition [8] [%]
COc1cc(N2CCC(N3CCN(C)CC3)CC2)ccc1Nc1ncc2c(n1)N(C)c1ccccc1C(=O)N2C	100	82	100	18	80	100	99	99
CCOc1cc(C(=O)N2CCC(N3CCN(C)CC3)CC2)ccc1Nc1ncc2c(n1)N(C1CCCC1)c1ccccc1C(=O)N2C	100	100	100	80	100	100	100	100
COc1cc(C(=O)N2CCC(N3CCN(C)CC3)CC2)ccc1Nc1ncc2c(n1)N(C1CCCC1)c1ccccc1C(=O)N2C	100	100	100	35	100	100	100	100
